Biological target: Alpha-glucosidase MAL62 (Saccharomyces cerevisiae, UniProt P07265)
Test: Inhibition of Saccharomyces cerevisiae (baker's yeast) alpha-glucosidase using p-nitrophenyl glucopyranoside as substrate preincubated for 30 min before substrate addition measured after 1 hr by spectrophotometric analysis

Sequence of Alpha-glucosidase MAL62 (P07265 whole entry): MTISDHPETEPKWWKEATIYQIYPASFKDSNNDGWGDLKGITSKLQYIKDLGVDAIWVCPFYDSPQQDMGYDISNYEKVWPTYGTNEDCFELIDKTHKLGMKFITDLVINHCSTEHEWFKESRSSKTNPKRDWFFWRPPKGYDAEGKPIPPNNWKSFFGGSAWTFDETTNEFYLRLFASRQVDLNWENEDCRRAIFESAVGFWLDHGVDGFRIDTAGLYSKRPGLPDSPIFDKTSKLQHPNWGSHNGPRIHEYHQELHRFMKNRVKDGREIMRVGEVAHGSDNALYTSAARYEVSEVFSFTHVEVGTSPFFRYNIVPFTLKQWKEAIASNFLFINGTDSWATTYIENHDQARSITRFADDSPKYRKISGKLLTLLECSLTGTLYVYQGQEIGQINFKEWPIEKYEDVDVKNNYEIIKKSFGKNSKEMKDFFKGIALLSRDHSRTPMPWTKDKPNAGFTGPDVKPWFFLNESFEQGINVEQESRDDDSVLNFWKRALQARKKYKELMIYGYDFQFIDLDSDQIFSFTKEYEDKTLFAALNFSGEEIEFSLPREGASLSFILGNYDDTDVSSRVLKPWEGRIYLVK

**Q.** CC(C)=CCC[C@@H](C(=O)O)[C@H]1CC[C@@]2(C)C3=C(CC[C@]12C)[C@@]1(C)CC[C@H](O)C(C)(C)[C@@H]1CC3 [TRAMETENOLIC ACID] was tested. Which IC50 did it give?
**A.** 17.1 µM
